Test [1] addresses Acetylcholinesterase (Electrophorus electricus, UniProt O42275). Put plainly: Inhibition of electric eel AChE by Ellman's method. The settings on record: for pIC50: read-out: IC50; for IC50: read-out: pIC50 (converted). Background: Ellman's reagent forms a yellow product with free thiols.
Test [2] in a line: Antioxidant activity of compound assessed as trolox equivalent of ORAC radical scavenging activity by ORAC-FL assay. Type of test: functional.
Test [3] has as its system Butyrylcholinesterase (Rattus norvegicus). The test can be described thus: Inhibition of rat serum BuChE at 10 uM by Ellman's method relative to control.
Test [4] addresses Amyloid-beta precursor protein (Homo sapiens) (UniProt P05067). The test can be described thus: Inhibition of self-induced amyloid beta (1 to 42) (unknown origin) aggregation by Thioflavin T based fluorometric assay relative to control. Also on record: concentration or dose not given beside the values. Particulars: concentration not given here.

pIC50: −log10 of the molar value.

Chain of Acetylcholinesterase (O42275 whole entry): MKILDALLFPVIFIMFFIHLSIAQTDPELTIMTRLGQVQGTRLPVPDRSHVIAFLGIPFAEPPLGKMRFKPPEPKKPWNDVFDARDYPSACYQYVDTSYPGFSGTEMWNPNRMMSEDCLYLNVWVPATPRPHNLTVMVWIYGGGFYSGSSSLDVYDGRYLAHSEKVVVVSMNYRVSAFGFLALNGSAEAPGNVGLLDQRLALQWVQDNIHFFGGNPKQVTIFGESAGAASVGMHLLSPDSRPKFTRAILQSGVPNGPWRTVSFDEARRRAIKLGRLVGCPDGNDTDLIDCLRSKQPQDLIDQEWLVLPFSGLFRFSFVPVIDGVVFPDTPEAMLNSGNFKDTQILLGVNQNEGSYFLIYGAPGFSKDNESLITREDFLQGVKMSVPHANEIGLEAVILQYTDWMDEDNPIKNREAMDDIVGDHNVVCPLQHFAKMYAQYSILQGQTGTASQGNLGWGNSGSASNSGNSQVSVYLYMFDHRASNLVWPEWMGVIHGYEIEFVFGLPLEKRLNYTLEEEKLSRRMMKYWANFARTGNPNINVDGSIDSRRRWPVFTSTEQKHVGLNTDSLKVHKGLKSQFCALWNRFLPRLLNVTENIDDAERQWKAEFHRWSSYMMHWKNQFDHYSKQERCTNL
Chain of Amyloid-beta precursor protein (Homo sapiens) (P05067 whole entry): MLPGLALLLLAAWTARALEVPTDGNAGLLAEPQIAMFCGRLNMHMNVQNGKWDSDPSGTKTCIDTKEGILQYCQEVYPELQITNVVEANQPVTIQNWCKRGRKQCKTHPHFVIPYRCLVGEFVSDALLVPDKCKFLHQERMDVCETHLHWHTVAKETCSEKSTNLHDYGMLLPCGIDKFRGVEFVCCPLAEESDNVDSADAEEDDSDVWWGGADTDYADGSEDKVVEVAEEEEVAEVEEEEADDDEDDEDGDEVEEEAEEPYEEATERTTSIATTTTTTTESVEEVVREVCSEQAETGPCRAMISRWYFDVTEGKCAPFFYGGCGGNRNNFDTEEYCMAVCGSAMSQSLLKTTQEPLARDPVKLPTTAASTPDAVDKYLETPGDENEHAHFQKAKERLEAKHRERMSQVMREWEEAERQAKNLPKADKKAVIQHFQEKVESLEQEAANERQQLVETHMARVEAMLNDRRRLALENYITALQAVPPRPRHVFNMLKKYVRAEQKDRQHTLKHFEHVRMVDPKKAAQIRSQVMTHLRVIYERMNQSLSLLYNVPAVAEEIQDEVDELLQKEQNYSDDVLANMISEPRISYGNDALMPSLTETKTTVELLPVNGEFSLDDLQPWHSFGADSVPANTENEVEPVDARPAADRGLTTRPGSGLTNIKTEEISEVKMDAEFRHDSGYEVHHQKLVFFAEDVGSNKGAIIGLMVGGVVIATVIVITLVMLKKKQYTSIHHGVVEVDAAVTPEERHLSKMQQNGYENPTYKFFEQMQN

As to `CCN(CCCCCCn1nc(-c2cc([N+](=O)[O-])ccc2O)ccc1=O)Cc1ccccc1N(C)C`, the pIC50 in test [1] is 6.34. Further, the Activity in test [2] is 0.42. The molecule further showed an inhibition in test [3] of 28.3%.

`CCN(CCCCCCn1nc(-c2cc([N+](=O)[O-])ccc2O)ccc1=O)Cc1ccccc1OC`: the negative logarithm of the IC50 (pIC50) in test [1] was 5.94. Further, the Activity in test [2] is 0.27. Besides, the inhibition in test [3] came to 31.8%.

For `O=c1ccc(-c2ccccc2O)n[nH]1`, the Activity in test [2] is 2.15. The molecule also had an inhibition in test [3] of less than 5%.

As to `CCN(CCCCCCn1nc(-c2ccccc2O)ccc1=O)Cc1cccc(Cl)c1`, the negative logarithm of the IC50 (pIC50) in test [1] is 5.53. In addition, the Activity in test [2] amounted to 1.56. In test [3], this molecule yielded an inhibition of 17.6%.

On to `CCN(CCCCCCn1nc(-c2ccc(OC)cc2O)ccc1=O)Cc1ccccc1N(C)C`, for which the inhibition was 34.3% in test [4] and 19.2% in test [3]. In addition, the pIC50 in test [1] is 5.80. Besides, the Activity in test [2] was 3.55.

Consider `CCN(CCCCCCn1nc(-c2cc(OC)ccc2O)ccc1=O)Cc1cccc(F)c1`, for which, in test [1], the negative-log IC50 (pIC50) is 5.64. Also, the Activity in test [2] was found to be 1.95. Also, in test [3], the inhibition stood at 17.4%.

Take `CCN(CCCCCCOc1ccc(-c2ccccc2O)nn1)Cc1ccc(F)cc1`: the negative logarithm of the IC50 (pIC50) in test [1] is 4.31. In addition, the Activity in test [2] is 0.61. Also, the inhibition in test [3] is less than 5%.

`CCN(CCCCCCn1nc(-c2ccccc2O)ccc1=O)Cc1ccccc1OC`: the inhibition in test [4] was 36.1%; in test [3], 24.5%. Further, in test [1], the negative-log IC50 (pIC50) is 6.13. Further, the IC50 in test [1] is 372 nM. Also, the Activity in test [2] was 2.76.

In the case of `CCN(CC)CCCCCCn1nc(-c2ccccc2O)ccc1=O`, the results for the inhibition in test [4] and in test [3] were 33.8% and 13.4%, respectively. In addition, the pIC50 in test [1] is 5.61. Further, the Activity in test [2] came to 2.69.

As to `CCN(CCCCCCn1nc(-c2cc(C)ccc2O)ccc1=O)Cc1ccccc1OC`, the pIC50 in test [1] was 5.78. Moreover, the Activity in test [2] worked out at 1.38. Also, the inhibition in test [3] was 38.9%.

`CCN(CCCCCCn1nc(-c2cc([N+](=O)[O-])ccc2O)ccc1=O)Cc1cccc(F)c1`: in test [1], the pIC50 is 6.00. The Activity in test [2] amounted to 0.29. The same molecule had an inhibition in test [3] of 33.3%.

`O=c1ccc(-c2ccccc2O)nn1CCCCCCN1CCCCC1`: in test [1], the negative-log IC50 (pIC50) is 5.34. Also, the Activity in test [2] came out at 3.34. Further, the inhibition in test [3] is 25.6%.

As to `CCN(CCCCCCn1nc(-c2cc(Cl)ccc2O)ccc1=O)Cc1ccccc1N(C)C`, the pIC50 in test [1] is 6.13. The Activity in test [2] was determined as 1.09. For the same molecule, the inhibition in test [3] worked out at 27.3%.

As to `O=c1ccc(-c2ccccc2O)nn1CCCCCCN1CCc2ccccc2C1`, the pIC50 in test [1] was 5.59. The Activity in test [2] came out at 2.58. In test [3], this molecule displayed an inhibition of 21.7%.

Regarding `CCN(CCCCCCn1nc(-c2ccccc2O)ccc1=O)Cc1ccc(F)cc1`, the pIC50 in test [1] was 5.07. For the same molecule, the Activity in test [2] was 2.26. In test [3], this molecule registered an inhibition of 9.3%.

As to `CCN(CCCCCCn1nc(-c2cc(Br)ccc2O)ccc1=O)Cc1ccccc1N(C)C`, the pIC50 in test [1] is 6.60. The Activity in test [2] is 1.48. In test [3], this molecule showed an inhibition of 32.2%.

Regarding `CN(CCCCCCn1nc(-c2ccccc2O)ccc1=O)Cc1ccccc1`, the negative logarithm of the IC50 (pIC50) in test [1] was 6.03. Further, the Activity in test [2] stood at 2.78. The inhibition in test [3] is 28.6%.

Take `CCN(CCCCCCn1nc(-c2ccccc2O)ccc1=O)Cc1ccccc1C`: in test [1], the pIC50 is 5.60. In addition, the Activity in test [2] amounted to 2.54. For the same molecule, the inhibition in test [3] amounted to 13.6%.

Consider `CCN(CCCCCCn1nc(-c2cc(Cl)ccc2O)ccc1=O)Cc1cccc(F)c1`, for which, in test [1], the negative logarithm of the IC50 (pIC50) was 5.84. Also, the Activity in test [2] turned out to be 0.84. In test [3], the inhibition was found to be 15.8%.

For the molecule `O=c1ccc(-c2ccccc2O)nn1CCCCCCN1CCCC1`, the pIC50 in test [1] was 5.80. Besides, the Activity in test [2] was found to be 2.98. The inhibition in test [3] turned out to be 15.7%.

Consider `CCN(CCCCCCn1nc(-c2cc(Cl)ccc2O)ccc1=O)Cc1ccccc1OC`, for which the pIC50 in test [1] is 5.03. Moreover, the Activity in test [2] stood at 0.96. In test [3], this molecule showed an inhibition of 24.3%.

Take `CCN(CCCCCCn1nc(-c2cc(Br)ccc2O)ccc1=O)Cc1cccc(F)c1`: the pIC50 in test [1] is 5.59. The Activity in test [2] was determined as 0.98. In test [3], this molecule came in with an inhibition of 12.9%.

As for `CCN(CCCCCCn1nc(-c2ccccc2O)ccc1=O)Cc1ccccc1Cl`, the pIC50 in test [1] is 5.64. Further, the Activity in test [2] worked out at 1.72. Also, in test [3], the inhibition is 19.6%.

In the case of `CCN(CCCCCCn1nc(-c2ccc(F)cc2O)ccc1=O)Cc1ccccc1N(C)C`, the negative-log IC50 (pIC50) in test [1] is 5.93. Moreover, the Activity in test [2] turned out to be 1.09. The same molecule returned an inhibition in test [3] of 27.3%.

For the molecule `CCN(CCCCCCn1nc(-c2ccccc2O)ccc1=O)Cc1ccc(N(C)C)cc1`, the values for the inhibition in test [4] and in test [3] were 51.9% and less than 5%, respectively. Moreover, in test [1], the negative-log IC50 (pIC50) was 5.04. The Activity in test [2] turned out to be 3.63.

Turning to `CCN(CCCCCCn1nc(-c2cc(Br)ccc2O)ccc1=O)Cc1ccccc1OC`, the pIC50 in test [1] is 6.06. Further, in test [2], the Activity amounted to 1.53. The molecule also came in with an inhibition in test [3] of 34.2%.

For the molecule `CCN(CCCCCCOc1ccc(-c2ccccc2O)nn1)Cc1cccc(F)c1`, the inhibition in test [4] came to 26.4%; in test [3], 18.5%. Also, the pIC50 in test [1] is 5.37. Also, the Activity in test [2] stood at 0.54.

With `CCN(CCCCCCn1nc(-c2cc(OC)ccc2O)ccc1=O)Cc1ccccc1OC`, the pIC50 in test [1] was 6.20. Besides, in test [2], the Activity is 1.96. Besides, in test [3], the inhibition worked out at 27.3%.

As for `COc1ccccc1CN(C)CCCCCCn1nc(-c2ccccc2O)ccc1=O`, the inhibition came to 30.9% in test [4] and 22.6% in test [3]. For the same molecule, in test [1], the pIC50 was 5.97. Moreover, the IC50 in test [1] is 85.1 nM. Further, the Activity in test [2] came out at 2.89.

Regarding `CCN(CCCCCCn1nc(-c2cc(C)ccc2O)ccc1=O)Cc1cccc(F)c1`, in test [1], the pIC50 is 6.05. Further, the Activity in test [2] is 1.14. Besides, the inhibition in test [3] is 29.2%.

With `CCN(CCCCCCn1nc(-c2ccccc2O)ccc1=O)Cc1ccccc1F`, the inhibition is 27.4% in test [4] and 15.7% in test [3]. Moreover, the negative-log IC50 (pIC50) in test [1] is 5.99. For the same molecule, the Activity in test [2] came to 2.43.

On to `CCN(CCCCCCn1nc(-c2cc(C)ccc2O)ccc1=O)Cc1ccccc1N(C)C`, for which, in test [1], the pIC50 is 6.55. For the same molecule, the Activity in test [2] was 1.26. Besides, in test [3], the inhibition was 23.9%.

`CCN(CCCCCCn1nc(-c2cc(NC(C)=O)ccc2O)ccc1=O)Cc1cccc(F)c1`: the inhibition in test [4] stood at 38.8%; in test [3], 17.7%. In test [1], the pIC50 is 7.16. Also, in test [2], the Activity turned out to be 2.1.

With `CCN(CCCCCCCCn1nc(-c2cc(NC(C)=O)ccc2O)ccc1=O)Cc1ccccc1N(C)C`, the inhibition turned out to be 95.2% in test [4] and 36.4% in test [3]. Moreover, the pIC50 in test [1] was 5.57. Besides, in test [2], the Activity was 3.56.

As to `CCN(CCCCCCn1nc(-c2ccccc2O)ccc1=O)Cc1ccccc1`, the inhibition amounted to 15.4% in test [4] and 25.7% in test [3]. Further, the negative-log IC50 (pIC50) in test [1] was 6.04. Further, the Activity in test [2] came to 2.96.

With `CCN(CCCCCCn1nc(-c2cc(F)ccc2O)ccc1=O)Cc1cccc(F)c1`, the inhibition in test [4] worked out at 33.8%; in test [3], 33%. The pIC50 in test [1] was 6.60. In addition, the Activity in test [2] was 0.75.

By pIC50 is commonly meant −log10 of the IC50, conventionally taken in molar units. The inhibition is how much of the control response was suppressed.
